In patent US20260250293A1, “ULODESINE SALT” (Laevoroc Immunology AG, priority 2021, published 2026):
Like-named read-outs stand apart in the source and are kept apart here.

Columns and labels:
Format in all cases: physicochemical
[1] = Aqueous formulation stability; details: for formulation stability: in water at 0.1 mg/ml (calculated by freebase), room temperature, 14 days
Procedure: The sample condition was maintained at 21-25° C. and protected from light.
Duplicate samples were prepared by transfer 4 ml solution into an 8 mL glass bottle and all the samples were placed in dark under room temperature. At desired time points of 0, 3, 7, 10 and 14 days, the sample concentration was analysed by HPLC and the pH value was measured.

[2] = Solid state stability study; details: for Purity(%): HPLC
Procedure: (closed) and 40° C./75% RH (open) conditions during 2 weeks. […] At 0, 1 week and 2 weeks' time points, the corresponding samples will be sampled for purity determination by HPLC to assess the chemical stability. Also, one more sample was prepared under corresponding condition for appearance and XRPD test to evaluate the physical stability.

[3] = Dynamic vapour sorption (DVS); details: for DVS hygroscopicity / DVS water uptake: 25° C.
Procedure: The moisture sorption profile was generated at 25° C. using a DVS moisture balance flow system (Model Advantage 1.0) with the following conditions: sample size approximately 10 mg, drying 25° C. for 60 minutes, adsorption range 0% to 95% RH, desorption range 95% to 0% RH, and step interval 5%. The equilibrium criterion was <0.01% weight change in 5 minutes for a maximum of 120 minutes.

[4] = Thermodynamic solubility study in water, SGF, FaSSIF and FeSSIF; details: for XRPD of residual solid: after 24 hrs solubility study
Procedure: Then all the samples were vortex for 30 s to disperse homogenously and placed into a constant temperature shaking incubator at 37° C. with 200 rpm for 24 hrs. If the API dissolved, more material will be added to keep suspension state. The concentration, XRPD and pH were tested at desired time points.

[5] = 40° C./75% RH open, 2 weeks, listed as Ulodesine Hemi L-glutarate
[6] = listed as Ulodesine hemi-L-glutarate
[7] = solubility sample in FaSSIF(pH 6.5)
[8] = solubility sample in FeSSIF(pH 5)
[9] = solubility sample in SGF(pH 1.2)
[10] = 40° C./75% RH open, 2 weeks, listed as Ulodesine Hemi succinate
[11] = 60° C. close, 2 weeks, listed as Ulodesine Hemi succinate

TRS(%) (=100% − purity %) ([2]; 0 d) | Purity(%) ([2]; 0 d) | TRS Change(%) (Compared to 0 d) ([2]; 40° C./75% RH open, 1 week) | TRS(%) (=100% − purity %) ([2]; 40° C./75% RH open, 1 week) | Purity(%) ([2]; 40° C./75% RH open, 1 week) | Purity(%) ([2]; 40° C./75% RH open, 2 weeks) | TRS Change(%) (Compared to 0 d) ([2]; 60° C. close, 1 week) | TRS(%) (=100% − purity %) ([2]; 60° C. close, 1 week) | Purity(%) ([2]; 60° C. close, 1 week) | TRS Change(%) (Compared to 0 d) ([2]; 60° C. close, 2 weeks) | Purity(%) ([2]; 60° C. close, 2 weeks) | XRPD pre and post DVS [3] | DVS hygroscopicity [3] | DVS water uptake ([3]; at 80% RH) | DVS water uptake ([3]; at 95% RH) | pH value at 24 hrs [4, 7] | pH value at 24 hrs [4, 8] | pH value at 24 hrs [4, 9] | pH value at 24 hrs ([4]; solubility sample in water) | SMILES | other results
0.60% | 99.403% | −0.12% | 0.48% | 99.524% | 99.600% | 0.15% | 0.74% | 99.258% | 0.42% TRS | 98.984% | No change | Moderately hygroscopic | (2.53% at 80% RH; | 27.06% at 95% RH) | 7.72 | 7.78 | 7.75 | 7.58 | O=c1nc[nH]c2c(CN3C[C@H](CO)[C@@H](O)C3)c[nH]c12 [Ulodesine hemi L-glutarate] | change of appearance, concentration and purity of solution ([1]; in water at 0.1 mg/ml (cal. by freebase), 14 days at room temperature, dark): no significant change; formulation stability [1]: physically and chemically stable for 14 days; formulation stability ([1]; listed as ulodesine hemi L-glutarate): good formulation stability; degradation (related substance increase) ([2]; 40° C./75% RH condition, during 2 weeks): no related substance increased; TRS Change(%) (Compared to 0 d) [2, 5]: −0.20%; TRS(%) (=100% − purity %) [2, 5]: 0.40%; TRS Change(%) (Compared to 0 d) ([2]; 60° C. close, 2 weeks, listed as Ulodesine Hemi L-glutarate): 0.42%; appearance and XRPD (polymorph) change ([2]; during 2 weeks under 60° C. and 40° C./75% RH conditions): no appearance and polymorph change; chemical stability based on the purity result ([2]; under 40° C./75% RH condition): more chemically stable than Ulodesine Hemi succinate; DVS hygroscopicity [3, 6]: moderately hygroscopic; DVS water uptake ([3]; at 80% RH, listed as Ulodesine hemi-L-glutarate): 2.53%; XRPD pre and post DVS [3, 6]: no change; XRPD of residual solid ([4]; FaSSIF(pH 6.5)): changed compared to initial solid form; XRPD of residual solid ([4]; FeSSIF(pH 5)): changed compared to initial solid form; XRPD of residual solid ([4]; water): changed compared to initial solid form
 |  |  |  |  |  |  |  |  |  |  | No change | Moderately hygroscopic | (3.68% at 80% RH; | 15.80% at 95% RH) | 6.40 | 6.09 | 5.60 | 6.56 | O=c1nc[nH]c2c(CN3C[C@H](CO)[C@@H](O)C3)c[nH]c12 [Ulodesine hemi adipinate] | 
0.06% | 99.942% | 0.33% | 0.39% | 99.613% | 99.782% | 0.13% | 0.18% | 99.816% | 0.34% TRS increased at | 99.601% | No change | Moderately hygroscopic | (6.97% at 80% RH; | 11.86% at 95% RH) | 6.16 | 5.75 | 5.32 | 6.34 | O=c1nc[nH]c2c(CN3C[C@H](CO)[C@@H](O)C3)c[nH]c12 [Ulodesine hemi succinate, reference compound] | TRS Change(%) (Compared to 0 d) ([2]; 40° C./75% RH open, 2 weeks): 0.16% TRS increased at; TRS Change(%) (Compared to 0 d) [2, 10]: 0.16%; TRS(%) (=100% − purity %) [2, 10]: 0.22%; TRS Change(%) (Compared to 0 d) [2, 11]: 0.34%; TRS(%) (=100% − purity %) [2, 11]: 0.40%
